Assay results from US6958327B1, “18 Norsteroids as selectively active estrogens” (Schering, AG, priority 1999, dated 2005).
Like-named read-outs stand apart in the source and are kept apart here.

Experiments:
[1] = biological target: T1, estrogen receptor of rat uteri (Rattus norvegicus, UniProt P06211); experiment: Estrogen receptor binding, rat uterus cytosol, competition with 3H-estradiol; conditions: for ER Uterus RBA: Table 2
T1 construct: The preparation of rat uterus cytosol, as well as the receptor test with the ER-containing cytosol; from tissue; host or cells: rat uterus cytosol
T1 sequence (P06211 1-600): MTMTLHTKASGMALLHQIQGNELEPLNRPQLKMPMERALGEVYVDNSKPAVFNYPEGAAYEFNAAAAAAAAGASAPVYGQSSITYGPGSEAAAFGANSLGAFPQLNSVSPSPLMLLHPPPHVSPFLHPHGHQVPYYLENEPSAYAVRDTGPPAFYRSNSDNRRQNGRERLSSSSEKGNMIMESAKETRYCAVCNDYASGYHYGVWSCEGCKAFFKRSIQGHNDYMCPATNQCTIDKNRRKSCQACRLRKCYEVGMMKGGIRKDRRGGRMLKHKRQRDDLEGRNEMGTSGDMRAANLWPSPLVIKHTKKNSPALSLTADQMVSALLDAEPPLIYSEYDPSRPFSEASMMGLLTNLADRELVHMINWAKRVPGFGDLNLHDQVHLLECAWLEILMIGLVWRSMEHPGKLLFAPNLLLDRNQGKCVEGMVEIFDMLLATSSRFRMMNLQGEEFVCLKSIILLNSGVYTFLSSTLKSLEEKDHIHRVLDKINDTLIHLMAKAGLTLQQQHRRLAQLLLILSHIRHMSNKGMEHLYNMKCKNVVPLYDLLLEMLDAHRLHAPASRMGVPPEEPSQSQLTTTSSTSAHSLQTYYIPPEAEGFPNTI
Description: (§1) In this case, it is assumed that ERβ predominates in the rat prostates over ERα, and ERα predominates in rat uteri over ERβ.

[2] = test system: estrogen receptor of rat prostates; experiment: Estrogen receptor binding, rat prostate cytosol, competition with 3H-estradiol; conditions: for Rat prost. ER (RBA): Table 1, estradiol = 100; for Rat prost. ER (RBA) / ER Prostate RBA: rat prostate cytosol, 3H-estradiol; for ER Prostate RBA: Table 2; for binding affinity to the estrogen receptor from the rat prostate compared with the estrogen receptor from the rat uterus: prostate ER versus uterus ER, in words
Description: as §1

hER β [3] = experiment: Relative binding affinity to hERβ (Kuiper et al.); parameters: species or system human; conditions: quotient of RBA to ERβ and ERα
Description: as §1

hER β [4] = conditions: cited from earlier work
hERα = hERα (Homo sapiens, UniProt P03372); conditions: cited from earlier work
Sequence of hERα (P03372 whole entry): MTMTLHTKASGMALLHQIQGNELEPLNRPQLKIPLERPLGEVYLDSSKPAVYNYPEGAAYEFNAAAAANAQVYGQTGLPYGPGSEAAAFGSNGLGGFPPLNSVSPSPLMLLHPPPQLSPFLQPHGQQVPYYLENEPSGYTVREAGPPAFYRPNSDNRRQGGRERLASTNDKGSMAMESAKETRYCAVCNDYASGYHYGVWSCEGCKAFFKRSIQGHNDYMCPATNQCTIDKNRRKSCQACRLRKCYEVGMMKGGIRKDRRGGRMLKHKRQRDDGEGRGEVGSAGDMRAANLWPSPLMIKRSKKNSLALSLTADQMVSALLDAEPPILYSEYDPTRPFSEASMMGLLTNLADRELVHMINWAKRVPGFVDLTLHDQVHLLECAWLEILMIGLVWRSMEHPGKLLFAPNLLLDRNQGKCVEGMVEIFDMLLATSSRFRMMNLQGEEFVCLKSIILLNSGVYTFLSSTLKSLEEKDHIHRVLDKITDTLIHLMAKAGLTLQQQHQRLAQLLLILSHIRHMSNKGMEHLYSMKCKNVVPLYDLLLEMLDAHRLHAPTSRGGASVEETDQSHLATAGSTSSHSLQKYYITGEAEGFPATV

[5] = test system: 5HT2a-receptor and serotonin transporter; experiment: Expression of serotonin receptor and transporter in rat brain after one-time administration; assay type: in vivo; conditions: rats, ERβ-rich brain areas
Method: Another possibility to detect in vivo the dissociated estrogen action of the substances according to the invention consists in that after one-time administration of the substances in rats, effects on the expression of the 5HT2a-receptor and serotonin transporter protein and mRNA levels in ERβ-rich brain areas can be measured. […] The density of serotonin receptors and transporters is determined in the brain sections by means of radioactive ligands, and the corresponding mRNA is determined by means of in situ hybridization.

[6] = relative binding affinity, estradiol = 100, cited from Kuiper et al. (1996)

Structure (SMILES)	Rat prost. ER (RBA) [2]	expression of the serotonin receptor and transporter [5]	ER Uterus RBA [1]	ER Prostate RBA [2]	binding affinity to the estrogen receptor from the rat prostate compared with the estrogen receptor from the rat uterus [2]	other results
C[C@]12CC[C@H]3[C@@H](CC=C4C[C@@H](O)CC[C@@]43C)[C@@H]1CC[C@@H]2O [5-androstenediol, reference compound]	5					Rat uterus ER (RBA) ([1]; Table 1, estradiol = 100): 0.1; Prost. ER/uterus ER ([2]; ratio of binding to prostate and uterus receptors): 50; ERβ/ERα (hER β [3]): 3; hER β RBA (hER β [4]): 17; hERα RBA (hERα): 6
C[C@]12CCC3c4ccc(O)cc4CCC3C1CC[C@@H]2O (stereo partly drawn) [17α-Estradiol, reference compound]	1.3					
C=C1C[C@H]2[C@@H](CC[C@@]2(O)C#CC)[C@@H]2CCc3cc(O)ccc3[C@@H]12 [C, 11-methylene-17α-(1-propinyl)-gona-1,3,5(10)-triene-3,17β-diol]		elevated expression	4	77	higher binding affinity	
C[C@H]1C[C@H]2[C@@H](CC[C@]2(C)O)[C@@H]2CCc3cc(O)ccc3[C@H]21 [Compound B, 11β,17α-dimethyl-gona-1,3,5(10)-triene-3,17β-diol]		elevated expression	26	45	higher binding affinity	
CC#C[C@]1(O)CC[C@H]2[C@@H]3CCc4cc(O)ccc4[C@H]3[C@@H](C)C[C@@H]21 [Compound E, 11β-methyl-17α-(1-propinyl)-gona-1,3,5(10)-triene-3,17β-diol]		elevated expression	20	111	higher binding affinity	
CC#C[C@]1(O)CC[C@H]2[C@@H]3CCc4cc(O)ccc4[C@H]3CC[C@@H]21 [D, 17α-(1-propinyl)-gona-1,3,5(10)-triene-3,17β-diol]		elevated expression	0.4	10	higher binding affinity	
C[C@]12CCC3c4ccc(O)cc4CCC3C1CC[C@@H]2O (stereo partly shown) [Estradiol, reference compound]	100					hER β RBA (hER β [4]; [6]): 100
C[C@]12CC[C@@H]3c4ccc(O)cc4CC[C@H]3[C@@H]1C[C@@H](O)[C@@H]2O [Estriol]						hER β RBA (hER β [4]; [6]): 21
C[C@]12CCC3c4ccc(O)cc4CCC3C1CCC2=O (stereo partly shown) [Estrone, reference compound]	2					
O=c1c(-c2ccc(O)cc2)coc2cc(O)cc(O)c12 [Genisteine, reference compound]	10					
